This note sets out measurements from patent US20210301038A1, “POLYSIALIC ACID AND DERIVATIVES THEREOF, PHARMACEUTICAL COMPOSITION AND METHOD OF PRODUCING POLYSIALIC ACID” (Medizinische Hochschule Hannover (MHH), priority 2018, published 2021).

In data set [1] the test system is mPFC slices from St8sia4−/− mice. Put plainly: TBS-induced LTP in mPFC slices from ST8SIA4-deficient mice and wild-type littermates. In kind it is cell-based, mouse. To be noted: Ro 25-6981 0.3 μM, DP12 1 μg/ml, sarcosine 0.75 mM; for LTP magnitude: St8sia4+/+ mice; for LTP level 50-60 min after TBS: St8sia4−/− mice. As to the method: For endoNF treatment in C57BL/6J mice, slices were first allowed to recover for 20 min at room temperature (22-24° C.) in recording aCSF and were then placed in a 24-well plate to be incubated in 2 ml of aCSF without (sham) or with addition of endoNF (10 μg/ml) at 35° C. for 2 hours. The 24-well plate was installed in a water bath (ED, Julabo, Seelbach, Germany). For field excitatory postsynaptic potential (fEPSP) recordings in knockout and transgenic mice, mPFC slices were incubated in recording aCSF for >2 hours at room temperature before recordings. For patch-clamp recordings in knockout mice, slices were incubated first at 35° C. for 20 min and then at room temperature for >30 min before recordings started. The aCSF was continuously gassed with 95% O2/5% CO2 during all incubation steps and recordings.
Prefrontal slices (400 μm) were transferred to a submerged-type recording MC membrane chamber (volume 2 ml; Scientific Systems Design Inc., Mississauga, Ontario, Canada) perfused with oxygenated recording ACSF at a flow rate of 4 ml/min and maintained at room temperature (22-25° C.), unless stated otherwise in the “Results”-section given below. Field EPSPs were evoked and recorded using thin-walled glass electrodes (borosilicate glass, wall thickness 0.188, length 100, and outer diameter 1.5 mm, Hilgenberg, Malsfeld, Germany) filled with recording aCSF in 400 μm-thick mPFC slices. In order to stimulate electrically the input fibers of pyramidal cells, the stimulation electrode (0.3-0.5 MΩ) was inserted into layers II/III of the prelimbic cortex. The recording electrode (2-2.5 MΩ) was placed in the vicinity of dendrites and cell bodies of pyramidal neurons in layer V (Huang et al., 2004).
Before LTP induction, basal synaptic transmission was recorded in each slice and the relationship between stimulus intensity and fEPSP slope was measured. Basal fEPSPs were evoked at 0.05 Hz for at least 10 min. The supramaximal slope was determined by gradually increasing the stimulation intensity until a population spike in the fEPSP became first visible. The stimulation intensity was adjusted to elicit a basal fEPSP with a slope of approximately 50% of the supramaximal value.
LTP was induced by application of five trains of theta-burst stimulation (TBS) with an inter-theta-train interval of 20 s (Brennaman et al., 2011). Each train consisted of 8 bursts delivered at 5 Hz. Each burst consisted of four pulses delivered at 100 Hz. Duration of pulses was 0.2 ms. For calculation of the LTP level, the mean fEPSP slope was measured between 50-60 min after TBS delivery, and it was then normalized to mean baseline fEPSP slope during 0-10 min before TBS. Stimulus artifacts in representative fEPSP examples in figures were blanked to facilitate the perception of fEPSPs recorded in the mPFC. Recording and analysis of LTP in St8Sia4^−/− mice was performed in a blind manner.

Data set [2] has as its system dissociated hippocampal cultures (primary neural cells). Briefly: MTT assay of neural cell viability. In kind it is cell-based, mouse. Particulars: 30 to 1000 nM, 48 hours, from 10th day in vitro; DP10 effect at 30, 100 and 300 nM. As to the method: Primary hippocampal cells were dissociated from embryonic mice on embryonic day 18. To prepare the primary neural cultures, pregnant C57/BL6J mice were sacrificed by cervical dislocation. Embryos were decapitated, and the hippocampi isolated from brains under sterile conditions and dissected. Enzymatic digestion by 0.25% trypsin/EDTA solution was followed by separation of the cells in serum-containing medium via trituration (10 passes, 1 ml pipette). The primary cells were seeded onto 96-well plates coated with 100 μg/ml poly-lysine and 20 μg/ml laminin. The plating density was 20,000 cells per well. First, 200 μl Dulbecco's modified Eagle's medium (DMEM) was applied per well (supplemented with 1% penicillin-streptomycin and 1% L-glutamine and 2% B27). After incubation for 2 h at 37° C./5% CO2, the medium was exchanged with the pre-warmed Neurobasal medium including 1% penicillin-streptomycin, 1% L-glutamine, and 2% B27. The cells—predominantly neurons and astrocytes—were incubated at 37° C. in 5% CO2 humidified atmosphere for 10 days before administration of reagents.
The assay was performed as described elsewhere with minor modifications (Khalid et al., 2018). Primary neural cells (see above) grown in a 96-well plate were exposed to drugs/vehicles for 48 h at 37° C./5% CO2. After aspiration of culture media, a washing was done with 100 μl phosphate buffered saline (PBS, pH=7.2). Then, PBS was completely removed, and 100 μl phenol red-free pre-warmed Neurobasal media and 50 μl MTT solution (3-(4,5-dimethylthiazol-2-yl)-2,5-diphenyltetrazolium bromide, 5 mg/ml; dissolved in PBS) were added to each well and plates were incubated for 4 h in an incubator. […] DMSO destroyed the cells and released the formazan, which was detected by optical density value at 560 nm, measured using a plate reader. Optical density values for wells containing cells were corrected by subtracting values measured in cell-free wells prepared and treated in the same way as wells containing control cells.
(Tetrazolium dyes change colour on reduction, which living cells bring about.)

(α(2→8)Neu5Ac)12 [DP12]: in data set [1], the LTP magnitude entry is on record as “no effect” and the “LTP level 50-60 min after TBS” value is “full restoration of LTP levels”. In addition, in data set [2], the “effect on neural cell viability” value is listed as “No effects”.
On the same counts, the results for `C[C@@H](CN1CCC(Cc2ccccc2)CC1)[C@@H](O)c1ccc(O)cc1.O=C(O)/C=C\C(=O)O` [Ro 25-6981, (αR,βS)-α-(4-hydroxyphenyl)-β-methyl-4-(phenylmethyl)-1-piperidinepropanol maleate] are “no effect”, “full restoration of LTP levels” and “no effects”.
